In experiment [1] the test system is P. redivivus males. Nature of the experiment: Attraction assay, Panagrellus redivivus males. The format is in vivo. As for the experimental part: (§1) FIG. 1A depicts, in accordance with an embodiment herein, a chemoattraction assay to reveal a gender specific mate finding cue in Panagrellus redivivus. A transparent template is attached below a 5-cm plate with a 16-mm bacterial lawn to delineate two scoring regions into which 0.6μL of the experimental sample and control sample are placed. Ten P. redivivus males are placed at points equidistant from the two scoring regions and the plate is recorded for 20 minutes (at a rate of 1 frame per second).
(§2) FIG. 1B depict attraction measured using software that computes the ratio of worm-pixels to total pixels for each scoring region.
(§3) FIG. 1C that the output is a plot of worm occupancy ratio vs. time for both scoring regions. The shown graph indicates strong attraction of P. redivivus males to the experimental sample. FIG. 2A depicts, in accordance with an embodiment herein, purification of the female sex pheromone in Panagrellus redivivus.
OP50 E. coli is grown on a standard 5 cm agar plate (made with standard Nematode Growth Medium). The bacterial lawn is 16 mm in diameter and is grown overnight at 20C before being used in trials. Two 4-mm spots ([…]) were placed on opposite sides of the bacterial lawn (using a transparent template to guide spot placement) and several minutes elapsed for the liquid to settle in before placing nematodes down on the assay. Recording began immediately upon worm placement. […] Trials were recorded for 20 minutes and frames were collected for analysis at 1 frame per second. […]
(§4) A video camera attached to the microscope produces a digital video stream, which is then analyzed. The ratio of time the average worm spends in each region of interest is calculated for every trial. […] Thus, worm pixels were counted instead of whole worms, allowing the inventors to take into account fractions of a worm in the region of interest. It also eliminated the need for a shape-based worm identification algorithm, and allowed each frame to be analyzed independently. […]

The subject of experiment [2] is P. redivivus females. Nature of the experiment: Attraction assay, Panagrellus redivivus females. Format: in vivo. How it is done: as §1, §2, §3
OP50 E. coli is grown on a standard 5 cm agar plate (made with standard Nematode Growth Medium). The bacterial lawn is 16 mm in diameter and is grown overnight at 20C before being used in trials. Two 4-mm spots ([…]) were placed on opposite sides of the bacterial lawn (using a transparent template to guide spot placement) and several minutes elapsed for the liquid to settle in before placing nematodes down on the assay. Recording began immediately upon worm placement. […] of the control was placed on one side of the lawn and […] of the experimental cue was placed on the other side of the lawn, changing the location of the cue throughout trials, between left/right and top/bottom to avoid bias. Nematodes were isolated by gender at the L4 stage the day before being used in trials as developed adults. Five worms were each placed at two points equidistant from the foci of the scoring region (ten total). Trials were recorded for 20 minutes and frames were collected for analysis at 1 frame per second. Results were averaged from at least three different trials. For every nematode species in this study, the inventors tested different total number of worms (using water in both scoring regions) to determine the minimum number of worms necessary for consistent unbiased results over a 20-minute trial. […]
as §4

In experiment [3] the test system is males from many of the nematode species tested. Nature of the experiment: Attraction assay, males of different nematode species. Format: in vivo. To be noted: 1 nM, 1 μM and 1 mM tested. How it is done:
FIG. 5A depicts, in accordance with an embodiment herein, that ascarosides mediate behavior of nematode species from diverse generas. Species that were amenable to test in the attraction assay (sufficient movement, unbiased direction, reproducible controls) were scored for attraction or repulsion toward three concentrations (1 mM, 1 μM, and 1 nM: from left to right) of 13 different ascarosides. Pvalues were determined using the Student's t-test with a P<0.05. The score “0” represents any findings where P>0.05.
(§5) To investigate the biological function of the ascarosides identified in the MS screen, the inventors used a bioassay (FIGS. 1A-1C) to measure attraction of different nematode species to a wide range of ascaroside concentrations (1 nM, 1 μM, and 1 mM). For these bioassays, nematode species had to fulfill several requirements, such as sufficient movement on bacterial lawns, low tendency to aggregate, easy to grow, and generally reproducible locomotive behavior. This study was limited to a survey of males from different species, because males tended to move much more evenly across our bioassay lawn than females and hermaphrodites (with the exception of P. redivivus females, which move well and were therefore in this study.)
OP50 E. coli is grown on a standard 5 cm agar plate (made with standard Nematode Growth Medium). The bacterial lawn is 16 mm in diameter and is grown overnight at 20C before being used in trials. Two 4-mm spots ([…]) were placed on opposite sides of the bacterial lawn (using a transparent template to guide spot placement) and several minutes elapsed for the liquid to settle in before placing nematodes down on the assay. Recording began immediately upon worm placement. […] of the control was placed on one side of the lawn and […] of the experimental cue was placed on the other side of the lawn, changing the location of the cue throughout trials, between left/right and top/bottom to avoid bias. Nematodes were isolated by gender at the L4 stage the day before being used in trials as developed adults. Five worms were each placed at two points equidistant from the foci of the scoring region (ten total). Trials were recorded for 20 minutes and frames were collected for analysis at 1 frame per second. Results were averaged from at least three different trials. For every nematode species in this study, the inventors tested different total number of worms (using water in both scoring regions) to determine the minimum number of worms necessary for consistent unbiased results over a 20-minute trial. The total number of worms used in the multiple species assays depending on that species' optimal parameters. 10 worms were for P. redivivus males and females, 20 worms were used for C. elegans males, O. dolichuridae males, and C. sp7 males and 14 worms were used forS. glaseri males.
A video camera attached to the microscope produces a digital video stream, which is then analyzed. The ratio of time the average worm spends in each region of interest is calculated for every trial. For ease of implementation, it was assumed that all worms in a single experiment are roughly the same size. Thus, worm pixels were counted instead of whole worms, allowing the inventors to take into account fractions of a worm in the region of interest. It also eliminated the need for a shape-based worm identification algorithm, and allowed each frame to be analyzed independently. The inventors applied a band-pass filter to each frame to eliminate the effect of uneven lighting and also accentuate the worms against the background. The worm was then identified after thresholding the filtered image. Throughout each experiment, the inventors know the locations and sizes of the regions of interest. Through the filtering described above, the inventors know which pixels are occupied by worms and which ones are not. They are then able to calculate the ratio of worm-pixels to all pixels inside the region of interest to produce the worm- occupancy ratio. […]

In experiment [4] the test system is asthmatic mice. In words: Ovalbumin induction of asthma, allergic airway inflammation in mice. As to conditions: for eosinophils / mucus hyper-production / cellular infiltration into the lungs: asthmatic mice; for cellular infiltration into the lungs: lung histology. Format: in vivo. As for the experimental part:
FIG. 7A depicts, in accordance with an embodiment herein, sensitization with OVA+ Control/Alum (N=3) and sensitization with OVA+NES/Alum (N=3), in Nippostrongylus brasiliensis. The experimental model is ovalbumin inducation of asthma. […] No worm, living or dead, is introduced into the asthma model. Furthermore, proteins were eliminated by denaturing at 100C for 25 minutes, and filtering through a 10 kDa filter. FIGS. 7B-7D depict the histology of mice treated with NES.
The effects of ascarosides are examined for an allergic airway inflammation.

For experiment [5], the system named is C. elegans males. In words: Attraction assay, C. elegans males. Format: in vivo, Caenorhabditis elegans. As to conditions: tested at 1 nM, 1 μM and 1 mM. As for the experimental part:
as §5
OP50 E. coli is grown on a standard 5 cm agar plate (made with standard Nematode Growth Medium). […] Trials were recorded for 20 minutes and frames were collected for analysis at 1 frame per second. […]
as §4

The test system of experiment [6] is P. redivivus females. In words: Repulsion scoring by behavioral response (immediate exit of the conditioned region). Format: in vivo, Panagrellus redivivus. As to conditions: high concentrations. The source says: The inventors thus used a separate method for scoring repulsion that focused on behavioral response rather than time spent in each region.
In experiment [7] the test system is C. elegans. As to conditions: cited from earlier work.
In experiment [8] the test system is C. elegans males. To be noted: reduced attraction at high concentrations; cited from earlier work.
[9] abbreviates: any of the tested concentrations.

“Also recorded” adds a separate entry of the source.

Turning to `CC1O[C@@H](O[C@H](C)CCCCCCC(=O)O)[C@@H](O)C[C@H]1O` (some centres unmarked) [ascr #10], the male attraction entry in experiment [1] (very high, nonphysiological concentration of 1 mM) is “some attraction”. For the same compound, the female attraction result in experiment [2] (setting [9]) was “do not respond”. In experiment [3], the attraction of males entry was “attracted”.
As for `C[C@H](CC/C=C/C(=O)O)O[C@@H]1O[C@@H](C)[C@H](O)C[C@H]1O` [ascr #7], the male attraction result in experiment [1] (1 mM and 1 μM) is reported as “attracted”. Besides, in experiment [4], the eosinophils result is listed as “reduction; also recorded: markedly reduced”, the mucus hyper-production entry is on record as “decreased” and the “cellular infiltration into the lungs” value was “decreased”. The “effect on allergic airway inflammation” value in experiment [4] (synthesized ascarosides tested individually, FIG. 10B) was “inhibitory effect”. Further, the attraction of males entry in experiment [3] was “attracted”. Besides, in experiment [5], the “male response (attraction)” value is “only respond to 1 mM”.
On to `CC1O[C@@H](O[C@H](C)CCCCC(=O)O)C(O)C[C@H]1O` (single isomer, unassigned; (-)) [ascr #1, (−) 6-(3,5-dihydroxy-6-methyltetrahydropyran-2-yloxy) heptanoic acid], for which the “male attraction (Attraction Bioassay)” value in experiment [1] (P. redivivus males) is reported as “strongly attracted; also recorded: full male attraction”. The “female repulsion, immediate exit of the conditioned region before entering a full worm's length” value in experiment [6] is on record as “significantly repelled”. The “induction of diapause (dauer)” value in experiment [7] is on record as “weakly induces diapause”. Moreover, the female attraction result in experiment [2] (setting [9]) is “not attracted”; in experiment [2] (between 100 and 106 fmol, FIG. 2E), “not attracted”. Also, in experiment [2] (time spent in each region), the “female repulsion, semi-automated scoring method” value was “not significantly repelled”. In addition, the eosinophils entry in experiment [4] is “reduction”; in experiment [4] (listed as Ascr #1), “some effect”. For the same compound, the mucus hyper-production entry in experiment [4] was “decreased”. Besides, the “cellular infiltration into the lungs” value in experiment [4] is given as “decreased”. In addition, the attraction of males result in experiment [3] was “attracted”.
On to `CC1O[C@@H](O[C@H](C)CCC(=O)O)[C@@H](O)C[C@H]1O` (some centres unmarked) [ascr #9], for which the attraction of males result in experiment [3] was “attracted”.
For the compound `CC(=O)CCCC(C)OC1OC(C)C(O)CC1O` (centres unmarked) [ascr #2], the “male response to hermaphroditic sex pheromones” value in experiment [8] is listed as “biphasic response”.
Turning to `CC1O[C@@H](O[C@H](C)CCCC/C=C/C(=O)O)[C@@H](O)C[C@H]1O` (some centres unmarked) [ascr #3], in experiment [4], the eosinophils entry is “reduction; also recorded: some effect”, the mucus hyper-production result is “decreased” and the “cellular infiltration into the lungs” value is given as “decreased”. The “male response to hermaphroditic sex pheromones” value in experiment [8] is given as “biphasic response”. For the same compound, the attraction of males entry in experiment [3] was “attracted”.
On to `C[C@H](CC/C=C/C(=O)Nc1ccc(C(=O)O)cc1)O[C@@H]1O[C@@H](C)[C@H](O)C[C@H]1O` [ascr #8], for which, in experiment [3], the attraction of males entry is reported as “attracted”.

Values taken from US20250179108A1, “UTILITY OF NEMATODE SMALL MOLECULES” (California Institute of Technology, priority 2011, published 2025).
